How the values were obtained:
[1] = biological target: human lactate dehydrogenase hLDH5 (LDH-A4) (Homo sapiens, UniProt P00338); assay: Enzyme inhibition assay, NADH-competition kinetics on purified hLDH5
[2] = system: A549 non-small cell lung carcinoma cells; assay: Intracellular concentration / cell uptake assessment by LC-MS; assay type: cell-based, human; details: 100 μM, 4 hours, compared to aglycone NHI-2 and to each other
HeLa cells = details: antiproliferative IC50, HeLa and A549 cells
GLUT1 = details: cited from earlier work; for Km: read-out: Km for GLUT1

| Structure (SMILES) | cell uptake (intracellular concentration, in words) [2] | enhanced potency compared to NHI-2 (HeLa cells) | Km (GLUT1) [mM] | further results |
| --- | --- | --- | --- | --- |
| COC(=O)c1cc2c(C(F)(F)F)cc(-c3ccccc3)cc2n1O[C@@H]1O[C@H](CO)[C@@H](O)[C@H](O)[C@H]1NC(C)=O [Compound 4, Methyl 1-(((2S,3R,4R,5S,6R)-3-acetamido-4,5-dihydroxy-6-(hydroxymethyl)tetrahydro-2H-pyran-2-yl)oxy)-6-phenyl-4-(trifluoromethyl)-1H-indole-2-carboxylate] |  |  |  | Ki [1]: 98.4 ± 15.6 µM |
| COC(=O)c1cc2c(C(F)(F)F)cc(-c3ccccc3)cc2n1O[C@@H]1O[C@H](CO)[C@H](O)[C@@H](O)[C@H]1O [Compound 3, Methyl 6-phenyl-4-(trifluoromethyl)-1-(((2S,3R,4R,5R,6R)-3,4,5-trihydroxy-6-(hydroxymethyl)tetrahydro-2H-pyran-2-yl)oxy)-1H-indole-2-carboxylate] | slightly lower levels of cell uptake | 2–3 fold |  |  |
| OC[C@H]1OC(O)[C@@H](O)[C@@H](O)[C@@H]1O (stereo partly drawn) [Mannose, D-mannose] |  |  | 20 | reduction of affinity for GLUT1 compared to glucose (GLUT1): 13 fold |
| COC(=O)c1cc2c(C(F)(F)F)cc(-c3ccccc3)cc2n1O[C@H]1O[C@H](CO)[C@@H](O)[C@H](O)[C@@H]1O [Compound 2, Methyl 6-phenyl-4-(trifluoromethyl)-1-(((2R,3S,4S,5S,6R)-3,4,5-trihydroxy-6-(hydroxymethyl)tetrahydro-2H-pyran-2-yl)oxy)-1H-indole-2-carboxylate] | significantly enhanced cell uptake | 3–6 fold |  |  |
| OC[C@H]1OC(O)[C@H](O)[C@@H](O)[C@@H]1O (some centres unmarked) [glucose] |  |  | 1.5 |  |
